Measured values published in patent US20240208954A1, “OXADIAZOLE COMPOUND, PREPARATION METHOD THEREFOR, PHARMACEUTICAL COMPOSITION AND USE THEREOF” (SHANGHAI INSTITUTE OF MATERIA MEDICA, CHINESE ACADEMY OF …, priority 2020, published 2024).
“And” between values parts separate entries of the source, which are not always exact repeats. Equal values may be shown once. Read-outs that look alike come from different tables or passages of the source.

Columns and labels:
[1] = Preliminary assessment of pharmacokinetics in mice; format: in vivo, CD-1 mice; conditions: for concentration at 24 h: male, CD-1, mouse, plasma, po, read-out: Concentration of A1 Drug in Plasma of Mice
Method: Dosing Regimen 9 CD-1 mice, male, weighing 20-26 g, were randomly divided into 3 groups with 3 mice in each group. The test compounds were administered intragastric, intravenously or intraperitoneally according to the following protocol. The mice were fasted for 12 h before the test and drank water freely. Food was consumed uniformly 2 h after administration. [table] The intragastric administration solution was prepared with DMSO/0.5% HPMC(5/95, v/v) to the final concentration. Intravenous and intraperitoneal administration solution was formulated with DMSO/PEG300/EtOH/NaCl(5/40/5/50, v/v/v). The sample of the administration solution was left (50 μL of the solution was mixed with 50 μL of DMSO before and after the administration, respectively) for test. The drug was given according to the above dose, the time of administration was recorded, and 20 μL of blood was taken from the femoral plexus of mice at the above set time points and placed in heparinized tubes. The blood was immediately centrifuged at 11000 rpm for 5 min. 10 μL of plasma was immediately and accurately sucked into a centrifuge tube prefilled with 100 μL of PK-IS solution (prepared with methanol: acetonitrile (1:1,v/v)), well mixed, and freezed at −20° C. for test.

[2] = Preliminary assessment of in vivo pharmacokinetics in rats

In the case of CC(C)Oc1ccc(-c2nc(-c3ccc(CN4CC(C(=O)O)C4)c4ccccc34)no2)cc1C#N.Cl [Compound A1, 1-((4-(5-(3-cyano-4-isopropoxyphenyl)-1,2,4-oxadiazol-3-yl)naphthalen-1-yl)methyl) azetidine-3-carboxylic acid hydrochloric acid], the concentration at 24 h ([1]; 2 mg/kg, title: oral 2 mg/kg, 24.0 h, individual animals 4-6) is reported as 0.5 ng/mL, the concentration at 24 h ([1]; 2 mg/kg, title: oral 2 mg/kg, 24.0 h, mean) is reported as 0.6 ng/mL and the “Concentration of A1 Drug in Plasma of Mice” value (shortened to “Concentration of A1 Drug”) ([1]; title: intraperitoneal 20 mg/kg, 0.25 h, individual animals 1-3) is reported as 1095 ng/mL and 1070 ng/mL and 3041 ng/mL. For the same compound, the “Concentration of A1 Drug” value ([1]; title: intraperitoneal 20 mg/kg, 0.50 h, individual animals 1-3) was 1574 ng/mL and 1388 ng/mL and 3514 ng/mL, the “Concentration of A1 Drug” value ([1]; title: intraperitoneal 20 mg/kg, 1.00 h, individual animals 1-3) was 1914 ng/mL and 1843 ng/mL and 4055 ng/mL and the “Concentration of A1 Drug” value ([1]; title: intraperitoneal 20 mg/kg, 2.00 h, individual animals 1-3) was 571 ng/mL and 1318 ng/mL and 1662 ng/mL. The “Concentration of A1 Drug” value ([1]; title: intraperitoneal 20 mg/kg, 4.00 h, individual animals 1-3) was 146 ng/mL and 215 ng/mL and 65.0 ng/mL, the “Concentration of A1 Drug” value ([1]; title: intraperitoneal 20 mg/kg, 8.00 h, individual animals 1-3) was 25.8 ng/mL and 36.4 ng/mL and 11.5 ng/mL and the “Concentration of A1 Drug” value ([1]; title: intraperitoneal 20 mg/kg, 24.0 h, individual animals 1-3) was 3.80 ng/mL. For the same compound, the “Concentration of A1 Drug” value ([1]; title: oral 2 mg/kg, 0.05 h, individual animals 4-6, 2 mg/kg) was 1521 ng/mL and 2513 ng/mL, the “Concentration of A1 Drug” value ([1]; title: oral 2 mg/kg, 0.25 h, individual animals 4-6, 2 mg/kg) was 572 ng/mL and 1021 ng/mL and the “Concentration of A1 Drug” value ([1]; title: oral 2 mg/kg, 0.75 h, individual animals 4-6, 2 mg/kg) was 113 ng/mL and 216 ng/mL. For the same compound, the “Concentration of A1 Drug” value ([1]; title: oral 2 mg/kg, 2.00 h, individual animals 4-6, 2 mg/kg) was 39.5 ng/mL and 60.6 ng/mL, the “Concentration of A1 Drug” value ([1]; title: oral 2 mg/kg, 4.00 h, individual animals 4-6, 2 mg/kg) was 8.60 ng/mL and 11.5 ng/mL and 5.20 ng/mL and the “Concentration of A1 Drug” value ([1]; title: oral 2 mg/kg, 8.00 h, individual animals 4-6, 2 mg/kg) was 8.70 ng/mL and 2.10 ng/mL and 1.10 ng/mL. For the same compound, the “Concentration of A1 Drug” value ([1]; title: oral 2 mg/kg, 24.0 h, individual animals 4-6, 2 mg/kg) was 0.800 ng/mL and 0.500 ng/mL, the “Plasma drug concentrations in rats” value ([2]; intragastric 20 mg/kg, 0.25 h, individual animals 4-6, listed as DC411151) was 1960 ng/mL and 696 ng/mL and 1150 ng/mL and the “Plasma drug concentrations in rats” value ([2]; intragastric 20 mg/kg, 0.5 h, individual animals 4-6, listed as DC411151) was 1570 ng/mL and 2600 ng/mL. The “Plasma drug concentrations in rats” value ([2]; intragastric 20 mg/kg, 1 h, individual animals 4-6, listed as DC411151) was 2070 ng/mL and 3070 ng/mL, the “Plasma drug concentrations in rats” value ([2]; intragastric 20 mg/kg, 2 h, individual animals 4-6, listed as DC411151) was 1220 ng/mL and 2150 ng/mL and the “Plasma drug concentrations in rats” value ([2]; intragastric 20 mg/kg, 4 h, individual animals 4-6, listed as DC411151) was 635 ng/mL and 841 ng/mL. The “Plasma drug concentrations in rats” value ([2]; intragastric 20 mg/kg, 6 h, individual animals 4-6, listed as DC411151) was 350 ng/mL and 289 ng/mL, the “Plasma drug concentrations in rats” value ([2]; intragastric 20 mg/kg, 8 h, individual animals 4-6, listed as DC411151) was 64.0 ng/mL and 57.0 ng/mL and the “Plasma drug concentrations in rats” value ([2]; intragastric 20 mg/kg, 24 h, individual animals 4-6, listed as DC411151) was 2.49 ng/mL and 2.92 ng/mL. For the same compound, the “Plasma drug concentrations in rats” value ([2]; intravenous 2 mg/kg, 0.083 h, individual animals 1-3, listed as DC411151, 2 mg/kg) was 3720 ng/mL and 3390 ng/mL, the “Plasma drug concentrations in rats” value ([2]; intravenous 2 mg/kg, 0.25 h, individual animals 1-3, listed as DC411151, 2 mg/kg) was 2650 ng/mL and 2700 ng/mL and the “Plasma drug concentrations in rats” value ([2]; intravenous 2 mg/kg, 0.5 h, individual animals 1-3, listed as DC411151, 2 mg/kg) was 1710 ng/mL and 1890 ng/mL. For the same compound, the “Plasma drug concentrations in rats” value ([2]; intravenous 2 mg/kg, 1 h, individual animals 1-3, listed as DC411151, 2 mg/kg) was 1110 ng/mL and 951 ng/mL, the “Plasma drug concentrations in rats” value ([2]; intravenous 2 mg/kg, 2 h, individual animals 1-3, listed as DC411151, 2 mg/kg) was 563 ng/mL and 528 ng/mL and the “Plasma drug concentrations in rats” value ([2]; intravenous 2 mg/kg, 4 h, individual animals 1-3, listed as DC411151, 2 mg/kg) was 138 ng/mL and 172 ng/mL. For the same compound, the “Plasma drug concentrations in rats” value ([2]; intravenous 2 mg/kg, 6 h, individual animals 1-3, listed as DC411151, 2 mg/kg) was 51.4 ng/mL and 47 ng/mL, the “Plasma drug concentrations in rats” value ([2]; intravenous 2 mg/kg, 8 h, individual animals 1-3, listed as DC411151, 2 mg/kg) was 13.6 ng/mL and 16.9 ng/mL and the “Plasma drug concentrations in rats” value ([2]; intravenous 2 mg/kg, 24 h, individual animals 1-3, listed as DC411151, 2 mg/kg) was “BQL and 1.94 ng/ml”. It also gave a Tmax ([2]; rat, in vivo, po, rats, intragastric 20 mg/kg, individual animals 4-6, read-out: Tmax) of 1 h and an AUC0-t ([2]; rat, in vivo, po, rats, intragastric 20 mg/kg, mean, read-out: AUC0-t) of 8780 ng·h/mL.
